Data: ChEMBL document CHEMBL5034010, “Novel Cephalosporin Conjugates Display Potent and Selective Inhibition of Imipenemase-Type Metallo-β-Lactamases” (J Med Chem, 2021)
In brackets after ≈: the same amount, converted by molar mass. Activity calls are given as the source filed them. No cut-off for these calls is given here.

Columns and labels:
Klebsiella pneumoniae [1] = test: Inhibition of Metallo-beta-lactamase IMP-28 in Klebsiella pneumoniae clinical isolate assessed as fold reduction in meropenem MIC at 128 ug/ml; settings: dose 128.0 µg/ml
Klebsiella pneumoniae [2] = test: Inhibition of Metallo-beta-lactamase IMP-28 in Klebsiella pneumoniae clinical isolate assessed as MIC for meropenem antibacterial activity at 32 ug/ml (reference value: 4 ug/ml); settings: dose 32.0 µg/ml
Escherichia coli [3] = test: Inhibition of Metallo-beta-lactamase NDM-1 in Escherichia coli clinical isolate assessed as fold reduction in meropenem MIC at 64 ug/ml; settings: dose 64.0 µg/ml
Klebsiella pneumoniae [4] = test: Inhibition of Metallo-beta-lactamase IMP-28 in Klebsiella pneumoniae clinical isolate assessed as MIC for meropenem antibacterial activity at 64 ug/ml (reference value: 4 ug/ml); settings: dose 64.0 µg/ml
Escherichia coli [5] = test: Substrate activity at Escherichia coli beta-lactamase NDM-1 assessed as compound hydrolysis by measuring Kcat by Michaelis-Menten analysis
[6] = Inhibition of Klebsiella pneumoniae beta-lactamase IMP-28 using nitrocefin chromogenic substrate measured after 15 to 60 min at 25 degC by microplate reader
Escherichia coli [7] = test: Inhibition of Metallo-beta-lactamase VIM-2 in Escherichia coli clinical isolate assessed as fold reduction in meropenem MIC at 128 ug/ml; settings: dose 128.0 µg/ml
Enterobacter cloacae [8] = test: Inhibition of Metallo-beta-lactamase IMP-1 in Enterobacter cloacae clinical isolate assessed as MIC for meropenem antibacterial activity at 128 ug/ml (reference value: 32 ug/ml); settings: dose 128.0 µg/ml
Escherichia coli [9] = test: Inhibition of Metallo-beta-lactamase NDM-1 in Escherichia coli clinical isolate assessed as fold reduction in meropenem MIC at 32 ug/ml; settings: dose 32.0 µg/ml
Klebsiella pneumoniae [10] = test: Substrate activity at Klebsiella pneumoniae beta-lactamase IMP-28 assessed as compound hydrolysis by measuring Kcat by Michaelis-Menten analysis
Enterobacter cloacae [11] = test: Inhibition of Metallo-beta-lactamase IMP-1 in Enterobacter cloacae clinical isolate assessed as fold reduction in meropenem MIC at 128 ug/ml; settings: dose 128.0 µg/ml
Klebsiella pneumoniae [12] = test: Antibacterial activity against beta-lactamase IMP-28 producing Klebsiella pneumoniae clinical isolate measured upto 128 ug/ml; assay type: functional, organism-based
Escherichia coli [13] = test: Substrate activity at Escherichia coli beta-lactamase NDM-1 assessed as compound hydrolysis by measuring kcat/km by Michaelis-Menten analysis
Enterobacter cloacae [14] = test: Inhibition of Enterobacter cloacae Metallo-beta-lactamase IMP-1
Escherichia coli [15] = test: Inhibition of Metallo-beta-lactamase NDM-1 in Escherichia coli clinical isolate assessed as MIC for meropenem antibacterial activity at 128 ug/ml (reference value: 32 ug/ml); settings: dose 128.0 µg/ml
Escherichia coli [16] = test: Inhibition of Metallo-beta-lactamase VIM-2 in Escherichia coli clinical isolate assessed as MIC for meropenem antibacterial activity at 128 ug/ml (reference value: 8 ug/ml); settings: dose 128.0 µg/ml
Escherichia coli [17] = test: Antibacterial activity against beta-lactamase NDM1 producing Escherichia coli clinical isolate measured upto 128 ug/ml; assay type: functional, organism-based
[18] = Stability of the compound assessed as Klebsiella pneumoniae beta-lactamase IMP-28-mediated degradation by measuring appearance of vinyl protons release measured after 120 mins by NMR spectra; assay type: ADME; settings: 2 h
Escherichia coli [19] = test: Inhibition of Metallo-beta-lactamase NDM-1 in Escherichia coli clinical isolate assessed as MIC for meropenem antibacterial activity at 64 ug/ml (reference value: 32 ug/ml); settings: dose 64.0 µg/ml
Escherichia coli [20] = test: Inhibition of Metallo-beta-lactamase VIM-2 in Escherichia coli clinical isolate assessed as fold reduction in meropenem MIC at 64 ug/ml; settings: dose 64.0 µg/ml
[21] = Metabolic stability of the compound assessed as Klebsiella pneumoniae beta-lactamase IMP-28-mediated metabolism by (2R)-2-((R)-carboxy(2-phenylacetamido)methyl)-5-(((R)-carboxy(phenyl)methylthio)methyl)-5,6-dihydro-2H-1,3-thiazine-4-carboxylic acid by LC-MS analysis; assay type: ADME
Escherichia coli [22] = test: Inhibition of Metallo-beta-lactamase VIM-2 in Escherichia coli clinical isolate assessed as MIC for meropenem antibacterial activity at 64 ug/ml (reference value: 8 ug/ml); settings: dose 64.0 µg/ml
Enterobacter cloacae [23] = test: Inhibition of Metallo-beta-lactamase IMP-1 in Enterobacter cloacae clinical isolate assessed as fold reduction in meropenem MIC at 32 ug/ml; settings: dose 32.0 µg/ml
Escherichia coli [24] = test: Substrate activity at Escherichia coli beta-lactamase VIM-2 assessed as compound hydrolysis by measuring Kcat/Km by Michaelis-Menten analysis
[25] = Inhibition of Escherichia coli beta-lactamase NDM-1 using nitrocefin chromogenic substrate measured after 15 to 60 min at 25 degC by microplate reader
Escherichia coli [26] = test: Inhibition of Metallo-beta-lactamase VIM-2 in Escherichia coli clinical isolate assessed as MIC for meropenem antibacterial activity at 32 ug/ml (reference value: 8 ug/ml); settings: dose 32.0 µg/ml
Enterobacter cloacae [27] = test: Inhibition of Metallo-beta-lactamase IMP-1 in Enterobacter cloacae clinical isolate assessed as MIC for meropenem antibacterial activity at 32 ug/ml (reference value: 32 ug/ml); settings: dose 32.0 µg/ml
[28] = Stability of the compound in Muller hinton broth assessed compound remaining measured after 15 hrs by HPLC analysis; assay type: physicochemical; settings: Mueller Hinton broth, read-out: Stability
Klebsiella pneumoniae [29] = test: Inhibition of Klebsiella pneumoniae beta Metallo-beta-lactamase IMP-28
Klebsiella pneumoniae [30] = test: Inhibition of Metallo-beta-lactamase IMP-28 in Klebsiella pneumoniae clinical isolate assessed as MIC for meropenem antibacterial activity at 128 ug/ml (reference value: 4 ug/ml); settings: dose 128.0 µg/ml
Enterobacter cloacae [31] = test: Antibacterial activity against beta-lactamase IMP1 producing Enterobacter cloacae clinical isolate measured upto 128 ug/ml; assay type: functional, organism-based
Escherichia coli [32] = test: Inhibition of Metallo-beta-lactamase NDM-1 in Escherichia coli clinical isolate assessed as MIC for meropenem antibacterial activity at 32 ug/ml (reference value: 32 ug/ml); settings: dose 32.0 µg/ml
Escherichia coli [33] = test: Substrate activity at Escherichia coli beta-lactamase VIM-2 assessed as compound hydrolysis by measuring Kcat by Michaelis-Menten analysis
Escherichia coli [34] = test: Antibacterial activity against beta-lactamase VIM2 producing Escherichia coli clinical isolate measured upto 128 ug/ml; assay type: functional, organism-based
Klebsiella pneumoniae [35] = test: Substrate activity at Klebsiella pneumoniae beta-lactamase IMP-28 assessed as compound hydrolysis by measuring Km by Michaelis-Menten analysis
Escherichia coli [36] = test: Substrate activity at Escherichia coli beta-lactamase VIM-2 assessed as compound hydrolysis by measuring Km by Michaelis-Menten analysis
Escherichia coli [37] = test: Substrate activity at Escherichia coli beta-lactamase NDM-1 assessed as compound hydrolysis by measuring Km by Michaelis-Menten analysis
Klebsiella pneumoniae [38] = test: Substrate activity at Klebsiella pneumoniae beta-lactamase IMP-28 assessed as compound hydrolysis by measuring Kcat/Km by Michaelis-Menten analysis
[39] = Inhibition of Enterobacter cloacae IMP-1 using nitrocefin chromogenic substrate measured after 15 to 60 min at 25 degC by microplate reader
[40] = Inhibition of Escherichia coli beta-lactamase VIM-2 using nitrocefin chromogenic substrate measured after 15 to 60 min at 25 degC by microplate reader
Enterobacter cloacae [41] = test: Inhibition of Metallo-beta-lactamase IMP-1 in Enterobacter cloacae clinical isolate assessed as MIC for meropenem antibacterial activity at 64 ug/ml (reference value: 32 ug/ml); settings: dose 64.0 µg/ml
Enterobacter cloacae [42] = test: Inhibition of Metallo-beta-lactamase IMP-1 in Enterobacter cloacae clinical isolate assessed as fold reduction in meropenem MIC at 64 ug/ml; settings: dose 64.0 µg/ml
Escherichia coli [43] = test: Inhibition of Metallo-beta-lactamase NDM-1 in Escherichia coli clinical isolate assessed as fold reduction in meropenem MIC at 128 ug/ml; settings: dose 128.0 µg/ml
Escherichia coli [44] = test: Inhibition of Metallo-beta-lactamase VIM-2 in Escherichia coli clinical isolate assessed as fold reduction in meropenem MIC at 32 ug/ml; settings: dose 32.0 µg/ml
Klebsiella pneumoniae [45] = test: Inhibition of Metallo-beta-lactamase IMP-28 in Klebsiella pneumoniae clinical isolate assessed as fold reduction in meropenem MIC at 64 ug/ml; settings: dose 64.0 µg/ml
Klebsiella pneumoniae [46] = test: Inhibition of Metallo-beta-lactamase IMP-28 in Klebsiella pneumoniae clinical isolate assessed as fold reduction in meropenem MIC at 32 ug/ml; settings: dose 32.0 µg/ml

O=C(Cc1ccccc1)N[C@@H]1C(=O)N2C(C(=O)O)=C(CS[C@H](Cc3ccccc3)C(=O)O)CS[C@H]12
fold change (FC) (Klebsiella pneumoniae [1]): > 64 | MIC (Klebsiella pneumoniae [2]): < 0.063 µg/mL | fold change (FC) (Escherichia coli [3]): 4 | MIC (Klebsiella pneumoniae [4]): < 0.063 µg/mL | kcat (Escherichia coli [5]): 17.4 s⁻¹ | IC50 [6]: 1.1 µM | fold change (FC) (Escherichia coli [7]): 4 | MIC (Enterobacter cloacae [8]): 0.5 µg/mL (≈ 0.975 µM) | fold change (FC) (Escherichia coli [9]): 2 | kcat (Klebsiella pneumoniae [10]): 2.83 s⁻¹ | fold change (FC) (Enterobacter cloacae [11]): 64 | Activity (Klebsiella pneumoniae [12]): inactive | kcat/Km (Escherichia coli [13]): 821000 M⁻¹ s⁻¹ | inhibition (Enterobacter cloacae [14]): Active | MIC (Escherichia coli [15]): 8 µg/mL (≈ 15.6 µM) | MIC (Escherichia coli [16]): 2 µg/mL (≈ 3.9 µM) | Activity (Escherichia coli [17]): inactive | Stability [18]: Stable | MIC (Escherichia coli [19]): 8 µg/mL (≈ 15.6 µM) | fold change (FC) (Escherichia coli [20]): 2 | Drug metabolism [21]: Metabolite_Detected | MIC (Escherichia coli [22]): 4 µg/mL (≈ 7.8 µM) | fold change (FC) (Enterobacter cloacae [23]): 32 | kcat/Km (Escherichia coli [24]): 546000 M⁻¹ s⁻¹ | IC50 [25]: 94 µM | MIC (Escherichia coli [26]): 4 µg/mL (≈ 7.8 µM) | MIC (Enterobacter cloacae [27]): 1 µg/mL (≈ 1.95 µM) | remaining at 15 h [28]: > 95% | inhibition (Klebsiella pneumoniae [29]): Active | MIC (Klebsiella pneumoniae [30]): < 0.063 µg/mL | Activity (Enterobacter cloacae [31]): inactive | MIC (Escherichia coli [32]): 16 µg/mL (≈ 31.2 µM) | kcat (Escherichia coli [33]): 2.35 s⁻¹ | Activity (Escherichia coli [34]): inactive | Km (Klebsiella pneumoniae [35]): 249 µM | Km (Escherichia coli [36]): 4.3 µM | Km (Escherichia coli [37]): 21.2 µM | kcat/Km (Klebsiella pneumoniae [38]): 11000 M⁻¹ s⁻¹ | IC50 [39]: 4.7 µM | IC50 [40]: 16 µM | MIC (Enterobacter cloacae [41]): 1 µg/mL (≈ 1.95 µM) | fold change (FC) (Enterobacter cloacae [42]): 32 | fold change (FC) (Escherichia coli [43]): 4 | fold change (FC) (Escherichia coli [44]): 2 | fold change (FC) (Klebsiella pneumoniae [45]): > 64 | fold change (FC) (Klebsiella pneumoniae [46]): > 64
